Experimental findings from US8987195B2 (priority 2012, dated 2015) are described below.

Like-named read-outs stand apart in the source and are kept apart here.

What is called EC50 is the concentration giving half of the maximal effect. The IC50 is the concentration that inhibits the measured activity by half.

One experiment concerns HCV genotype 1b replicon. Briefly: HCV replicon assay, genotype 1b replicon EC50. It is filed as cell-based, Hepatitis C virus. The settings on record: Hepatitis C virus, read-out: EC50 [gt-1b]. The procedure, abridged: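 Stable neomycin phosphotransferase-encoding replicon cell lines, kept under G418 selection beforehand, were plated with a compound dilution series without G418 and incubated 24-48 hours. Replicon RNA was then quantified, or luciferase activity read. EC50 was calculated as percent of DMSO control by four-parameter fit.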

The target of experiment [1] is HCV NS3/4A protease genotype 1b (Hepatitis C virus genotype 1b, UniProt P26663). The experiment in a line: HCV NS3/4A protease time-resolved fluorescence (TRF) assay, Ki against genotype 1b. The class given is biochemical. The procedure, abridged: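 Time-resolved fluorescence readout of NS3/4A cleavage of 25 nM europium-labelled peptide over 2.5 h at room temperature, enzyme levels set for signal/background 10–30 (0.2, 0.4, 0.025 nM for 1b, A156T, 3a). Ki by IC50=Ki(1+[S]/KM).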

[2] abbreviates: IC50 [gt-1b] (nM), NS3/4A genotype 1b, enzyme 0.2 nM.

Take `COc1ccc2nc(C(F)(F)F)c3c(c2c1)[C@H](N1CCOCC1)C[C@]1(C[C@H]2C(=O)N[C@]4(C(=O)NS(=O)(=O)C5(C)CC5)C[C@H]4/C=C\CCCCC[C@H](NC(=O)OC(C)(C)C)C(=O)N2C1)O3` [Example 66, tert-Butyl((1′R,2R,6S,13aS,14aR,16aS,Z)-9′-methoxy-14a-(((1-methylcyclopropyl)sulfonyl)carbamoyl)-1′-morpholino-5,16-dioxo-5′-(trifluoromethyl) -1′,2′,3,5,6,7,8,9,10,11,13a,14,14a,15,16,16a-hexadecahydro-1H-spiro[cyclopropa[e]pyrrolo[1,2-α][1,4]diazacyclopentadecine-2,3′-pyrano[2,3-c]quinolin]-6-yl)carbamate]: in the experiment on HCV genotype 1b replicon (genotype 1b replicon), the EC50 was 0.148 nM. Besides, 0.011 nM corresponded to half-maximal inhibition in experiment [1] (setting [2]) (IC50).
Taken in the same sequence, the figures for `COC(=O)N[C@H]1CCCCC/C=C\[C@@H]2C[C@@]2(C(=O)NS(=O)(=O)C2(C)CC2)NC(=O)[C@@H]2C[C@]3(CCc4c(c(-c5cccc(F)c5)nc5ccccc45)O3)CN2C1=O` [Example 88, methyl [(2R,6S,12Z,13aS,14aR,16aS)-5′-(3-fluorophenyl)-14a-{[(1-methylcyclopropyl)sulfonyl]carbamoyl}-5,16-dioxo-1,1′,2′,5,6,7,8,9,10,11,13a,14,14a,15,16,16a-hexadecahydrospiro[cyclopropa[e]pyrrolo[1,2-a][1,4]diazacyclopentadecine-2,3′-pyrano[2,3-c]quinolin]-6-yl]carbamate] were 0.582 nM and 0.202 nM.
For `Cc1ccc2nc(C)c3c(c2c1)CC[C@]1(C[C@H]2C(=O)N[C@]4(C(=O)NS(=O)(=O)C5(C)CC5)C[C@H]4/C=C\CCCCC[C@H](NC(=O)OCC(C)C)C(=O)N2C1)O3` [Example 108, 2-methylpropyl [(2R,6S,12Z,13aS,14aR,16aS)-5′,9′-dimethyl-14a-{[(1-methylcyclopropyl)sulfonyl]carbamoyl}-5,16-dioxo-1,1′,2′,5,6,7,8,9,10,11,13a,14,14a,15,16,16a-hexadecahydrospiro[cyclopropa[e]pyrrolo[1,2-a][1,4]diazacyclopentadecine-2,3′-pyrano[2,3-c]quinolin]-6-yl]carbamate], the EC50 in the experiment with HCV genotype 1b replicon (genotype 1b replicon) turned out to be 1.23 nM. In experiment [1] (setting [2]), the IC50 is 0.007 nM.
Turning to `COc1ccc2nc(C(F)(F)F)c3c(c2c1)CC[C@]1(C[C@H]2C(=O)N[C@]4(C(=O)NS(=O)(=O)C5(C)CC5)C[C@H]4/C=C\CCCCC[C@H](NC(=O)OCC4(C)CC4)C(=O)N2C1)O3` [Example 498, (1-methylcyclopropyl)methyl [(2R,6S,12Z,13aS,14aR,16aS)-9′-methoxy-14a-{[(1-methylcyclopropyl)sulfonyl]carbamoyl}-5,16-dioxo-5′-(trifluoromethyl)-1,1′,2′,5,6,7,8,9,10,11,13a,14,14a,15,16,16a-hexadecahydrospiro[cyclopropa[e]pyrrolo[1,2-a][1,4]diazacyclopentadecine-2,3′-pyrano[2,3-c]quinolin]-6-yl]carbamate], in the experiment on HCV genotype 1b replicon (HCV replicon, genotype 1b, K+ salt), the EC50 was 0.607 nM. Besides, the IC50 in experiment [1] (IC50 [gt-1b], NS3/4A protease TRF assay, genotype 1b enzyme 0.2 nM, K+ salt) stood at 0.009 nM.
Turning to `COc1ccc2nc(C)c3c(c2c1)C(F)(F)C[C@]1(C[C@H]2C(=O)N[C@]4(C(=O)NS(=O)(=O)C5(C)CC5)C[C@H]4/C=C\CCCCC[C@H](NC(=O)OC(C)(C)C(F)(F)F)C(=O)N2C1)O3` [Example 265, 1,1,1-trifluoro-2-methylpropan-2-yl [(2S,6S,12Z,13aS,14aR,16aS)-1′,1′-difluoro-9′-methoxy-5′-methyl-14a-{[(1-methylcyclopropyl)sulfonyl]carbamoyl}-5,16-dioxo-1,1′,2′,5,6,7,8,9,10,11,13a,14,14a,15,16,16a-hexadecahydrospiro[cyclopropa[e]pyrrolo[1,2-a][1,4]diazacyclopentadecine-2,3′-pyrano[2,3-c]quinolin]-6-yl]carbamate], in the experiment with HCV genotype 1b replicon (genotype 1b replicon, K+ salt), the EC50 was found to be 3.35 nM. Moreover, the IC50 in experiment [1] (IC50 [gt-1b] (nM), NS3/4A genotype 1b, enzyme 0.2 nM, K+ salt) was 0.007 nM.
